Our source for the ED50 values is patent publication US5079243A, “Benzazepines” (Novo Nordisk A/S, priority 1989, dated 1992).

One may read the ED50 as the dose at which the effect has come halfway, by size or by number of responders.

The test system of the test is stereotyped gnawing behaviour in mice induced by methylphenidate. The test can be described thus: methylphenidate induced gnawing test in mice. It is filed as in vivo. The note with it: Mus musculus.

In the case of `COCOc1cc2c(cc1Cl)CCN(C)CC2c1cccc2ccoc12` (single isomer, unassigned; (+)) [Example 1, (+)-5-(7-benzofuranyl)-8-chloro-7-methoxymethyloxy-3-methyl-2,3,4,5-tetrahydro-1H-3-benzazepine], it took a dose of 2 mg/kg to reach the 50% effect level (ED50). As for `COCOc1cc2c(cc1Cl)CCN(C)CC2c1cccc2c1OCC2` (single isomer, unassigned; (+)) [Example 2, (+)-8-chloro-5-(2,3-dihydro-benzofuran-7-yl)-7-methoxy-methyloxy-3-methyl-2,3,4,5-tetrahydro-1H-3-benzazepine], the ED50 was 5.4 mg/kg.
